Data reported in patent publication US9242987B2, “Heterocyclyl pyrazolopyrimidine analogues as JAK inhibitors” (Cellzome Limited, priority 2009, dated 2016).

Columns and labels:
JAK3 = target: T1, JAK3 (Homo sapiens, UniProt P52333); assay: Kinobeads assay, JAK3; type: binding; settings: mixed Molt4/Ramos cell lysate, dot blot detection
T1 construct: endogenous in cells; host or cells: Mixed Molt4/Ramos lysate (1:2)
T1 sequence (P52333 1-1124): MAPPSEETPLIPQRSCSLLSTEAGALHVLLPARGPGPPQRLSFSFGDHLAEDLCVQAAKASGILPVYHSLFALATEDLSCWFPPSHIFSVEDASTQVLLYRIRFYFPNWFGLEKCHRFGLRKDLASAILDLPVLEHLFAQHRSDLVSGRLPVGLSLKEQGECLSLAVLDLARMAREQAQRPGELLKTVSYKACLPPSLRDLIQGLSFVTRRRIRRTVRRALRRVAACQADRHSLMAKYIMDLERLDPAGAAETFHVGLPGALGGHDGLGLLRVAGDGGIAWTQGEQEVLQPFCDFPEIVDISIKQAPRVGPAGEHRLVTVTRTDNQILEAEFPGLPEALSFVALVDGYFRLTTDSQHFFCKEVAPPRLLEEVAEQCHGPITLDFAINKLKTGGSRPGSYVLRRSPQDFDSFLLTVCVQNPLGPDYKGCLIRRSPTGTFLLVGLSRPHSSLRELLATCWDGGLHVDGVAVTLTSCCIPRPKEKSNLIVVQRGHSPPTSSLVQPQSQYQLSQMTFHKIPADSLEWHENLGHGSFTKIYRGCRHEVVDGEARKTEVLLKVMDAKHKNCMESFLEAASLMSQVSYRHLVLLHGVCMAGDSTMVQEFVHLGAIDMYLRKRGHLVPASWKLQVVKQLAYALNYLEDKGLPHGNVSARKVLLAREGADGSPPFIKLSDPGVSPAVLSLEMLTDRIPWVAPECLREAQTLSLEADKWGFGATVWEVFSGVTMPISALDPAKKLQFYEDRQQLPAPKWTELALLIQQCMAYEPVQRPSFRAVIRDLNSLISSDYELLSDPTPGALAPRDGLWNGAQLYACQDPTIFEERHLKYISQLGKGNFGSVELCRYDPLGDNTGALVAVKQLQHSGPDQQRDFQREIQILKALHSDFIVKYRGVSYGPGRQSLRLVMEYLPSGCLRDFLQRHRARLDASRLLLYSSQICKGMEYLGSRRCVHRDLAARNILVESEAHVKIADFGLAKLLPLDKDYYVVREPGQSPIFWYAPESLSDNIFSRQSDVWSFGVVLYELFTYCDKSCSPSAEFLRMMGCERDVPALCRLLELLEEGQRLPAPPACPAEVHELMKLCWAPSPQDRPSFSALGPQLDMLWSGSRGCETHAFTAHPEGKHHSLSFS
Summary of the method: (§1)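 Competition pulldown: compound dilution series incubated 3 h in cold room with immobilized aminopyrido-pyrimidine beads and mixed Molt4/Ramos lysate (1:2, 10 mg/mL protein) in DP buffer pH 7.4 with NP40. Bead-bound JAK2/JAK3 eluted, quantified by antibody dot blot with infrared detection; IC50 from dose-response curves.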

JAK2 = target: T2, JAK2 (Homo sapiens, UniProt O60674); assay: Kinobeads assay, JAK2; type: binding; settings: mixed Molt4/Ramos cell lysate, dot blot detection
T2 construct: endogenous in cells; host or cells: Mixed Molt4/Ramos lysate (1:2)
Summary of the method: as §1

T2 sequence (O60674 whole entry): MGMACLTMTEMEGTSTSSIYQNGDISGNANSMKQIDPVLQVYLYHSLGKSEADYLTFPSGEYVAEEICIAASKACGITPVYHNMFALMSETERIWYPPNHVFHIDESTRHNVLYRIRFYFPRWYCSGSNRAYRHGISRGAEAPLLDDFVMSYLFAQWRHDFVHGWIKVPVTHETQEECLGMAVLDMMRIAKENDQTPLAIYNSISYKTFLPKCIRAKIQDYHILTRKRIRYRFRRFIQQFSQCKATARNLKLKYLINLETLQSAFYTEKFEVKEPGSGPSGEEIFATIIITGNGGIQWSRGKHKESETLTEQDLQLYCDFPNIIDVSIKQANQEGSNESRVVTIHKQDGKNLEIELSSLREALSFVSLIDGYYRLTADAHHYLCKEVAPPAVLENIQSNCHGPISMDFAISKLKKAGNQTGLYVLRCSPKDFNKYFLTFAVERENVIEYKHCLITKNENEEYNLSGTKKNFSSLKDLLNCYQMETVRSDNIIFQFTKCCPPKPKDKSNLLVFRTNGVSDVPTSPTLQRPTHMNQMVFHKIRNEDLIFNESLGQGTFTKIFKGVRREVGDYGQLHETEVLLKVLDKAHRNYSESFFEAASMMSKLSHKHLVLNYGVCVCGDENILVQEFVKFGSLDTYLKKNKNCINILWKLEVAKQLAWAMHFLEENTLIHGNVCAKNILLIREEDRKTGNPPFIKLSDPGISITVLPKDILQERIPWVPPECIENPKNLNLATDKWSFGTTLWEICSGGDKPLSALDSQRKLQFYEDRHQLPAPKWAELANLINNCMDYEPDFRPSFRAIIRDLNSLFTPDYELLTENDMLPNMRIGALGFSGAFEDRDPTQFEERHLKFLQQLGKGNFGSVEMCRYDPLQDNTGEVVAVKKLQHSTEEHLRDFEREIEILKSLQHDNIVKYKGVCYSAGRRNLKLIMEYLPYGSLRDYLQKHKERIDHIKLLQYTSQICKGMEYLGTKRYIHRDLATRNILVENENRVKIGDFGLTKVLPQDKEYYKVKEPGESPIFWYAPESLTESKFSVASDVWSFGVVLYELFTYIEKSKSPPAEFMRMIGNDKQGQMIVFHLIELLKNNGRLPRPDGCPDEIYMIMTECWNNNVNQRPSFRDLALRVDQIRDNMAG

| IC50 (JAK3) | IC50 (JAK2) | Structure (SMILES) |
| --- | --- | --- |
| < 100 nM | 1000 to 10000 nM | Cn1cc(Nc2ncc3cnn(Cc4c(F)cccc4C(F)(F)F)c3n2)cn1 [Example 164, 1-(2-Fluoro-6-(trifluoromethyl)benzyl)-N-(1-methyl-1H-pyrazol-4-yl)-1H-pyrazolo[3,4-d]pyrimidin-6-amine] |
| < 100 nM | 1000 to 10000 nM | O=C1COCCN1c1ccc(F)c(Cn2ncc3cnc(Nc4cnn(CCO)c4)nc32)c1F [Example 293, 4-(2,4-Difluoro-3-((6-((1-(2-hydroxyethyl)-1H-pyrazol-4-yl)amino)-1H-pyrazolo[3,4-d]pyrimidin-1-yl)methyl)phenyl)morpholin-3-one] |
| 100 to 1000 nM | ≥ 10000 nM | Cn1cc(Nc2ncc3cnn(-c4cccc(C(=O)NCCO)c4)c3n2)cn1 [Example 147, N-(2-Hydroxyethyl)-3-(6-((1-methyl-1H-pyrazol-4-yl)amino)-1H-pyrazolo[3,4-d]pyrimidin-1-yl)benzamide] |
| < 100 nM | 1000 to 10000 nM | N#CCCCn1cc(Nc2ncc3cnn(Cc4ccccc4C#N)c3n2)cn1 [Example 20, 2-((6-(1-(3-Cyanopropyl)-1H-pyrazol-4-ylamino)-1H-pyrazolo[3,4-d]pyrimidin-1-yl)methyl)benzonitrile] |
| < 100 nM | 100 to 1000 nM | COc1nn(CC(F)F)cc1Nc1ncc2cnn(Cc3cc(F)ccc3C#N)c2n1 [Example 153, 2-((6-((1-(2,2-Difluoroethyl)-3-methoxy-1H-pyrazol-4-yl)amino)-1H-pyrazolo[3,4-d]pyrimidin-1-yl)methyl)-4-fluorobenzonitrile] |
| 100 to 1000 nM | 1000 to 10000 nM | Cn1cc(Nc2ncc3cnn(Cc4ccccc4OCCOCc4ccccc4)c3n2)cn1 [Example 221, 1-(2-(2-(Benzyloxy)ethoxy)benzyl)-N-(1-methyl-1H-pyrazol-4-yl)-1H-pyrazolo[3,4-d]pyrimidin-6-amine] |
| < 100 nM | 100 to 1000 nM | OCCn1cc(Nc2ncc3cnn(Cc4c(F)ccc(F)c4F)c3n2)cn1 [Example 254, 2-(4-((1-(2,3,6-Trifluorobenzyl)-1H-pyrazolo[3,4-d]pyrimidin-6-yl)amino)-1H-pyrazol-1-yl)ethanol] |
| 100 to 1000 nM | 1000 to 10000 nM | Cn1cc(Nc2ncc3cnn(CCc4ccc(F)cc4)c3n2)cn1 [Example 82, 1-(4-Fluorophenethyl)-N-(1-methyl-1H-pyrazol-4-yl)-1H-pyrazolo[3,4-d]pyrimidin-6-amine] |
| < 100 nM | 1000 to 10000 nM | Cn1cc(Nc2ncc3cnn(Cc4cccc(Cl)c4Cl)c3n2)cn1 [Example 178, 1-(2,3-Dichlorobenzyl)-N-(1-methyl-1H-pyrazol-4-yl)-1H-pyrazolo[3,4-d]pyrimidin-6-amine] |
| < 100 nM | ≥ 10000 nM | Cn1cc(Nc2ncc3cnn(Cc4cccc(N[C@@H]5CCOC5)n4)c3n2)cn1 [Example 187, (R)—N-(1-Methyl-1H-pyrazol-4-yl)-1-((6-((tetrahydrofuran-3-yl)amino)pyridin-2-yl)methyl)-1H-pyrazolo[3,4-d]pyrimidin-6-amine] |
| < 100 nM | 100 to 1000 nM | NS(=O)(=O)c1ccc(-n2ncc3cnc(Nc4cnn(CCO)c4)nc32)cc1 [Example 121, 4-(6-((1-(2-Hydroxyethyl)-1H-pyrazol-4-yl)amino)-1H-pyrazolo[3,4-d]pyrimidin-1-yl)benzenesulfonamide] |
| < 100 nM | 1000 to 10000 nM | NC(=O)c1ccccc1Cn1ncc2cnc(Nc3cnn(CC(F)F)c3)nc21 [Example 42, 2-((6-(1-(2,2-Difluoroethyl)-1H-pyrazol-4-ylamino)-1H-pyrazolo[3,4-d]pyrimidin-1-yl)methyl)benzamide] |
| < 100 nM | 100 to 1000 nM | OCCn1ccc(Nc2ncc3cnn(Cc4ccccc4F)c3n2)c1 [Example 247, 2-(3-((1-(2-Fluorobenzyl)-1H-pyrazolo[3,4-d]pyrimidin-6-yl)amino)-1H-pyrrol-1-yl)ethanol] |
| < 100 nM | ≥ 10000 nM | Cn1cc(Nc2ncc3cnn(Cc4cccc(OCCN5CCCCC5)c4)c3n2)cn1 [Example 167, N-(1-Methyl-1H-pyrazol-4-yl)-1-(3-(2-(piperidin-1-yl)ethoxy)benzyl)-1H-pyrazolo[3,4-d]pyrimidin-6-amine] |
| < 100 nM | 1000 to 10000 nM | OCCn1cc(Nc2ncc3cnn(Cc4c(F)c(F)cc(N5CCNCC5)c4F)c3n2)cn1 [Example 283, 2-(4-((1-(2,3,6-Trifluoro-5-(piperazin-1-yl)benzyl)-1H-pyrazolo[3,4-d]pyrimidin-6-yl)amino)-1H-pyrazol-1-yl)ethanol] |
| 100 to 1000 nM | ≥ 10000 nM | CS(=O)(=O)n1cc(Nc2ncc3cnn(Cc4ccccc4F)c3n2)cn1 [Example 96, 1-(2-Fluorobenzyl)-N-(1-(methylsulfonyl)-1H-pyrazol-4-yl)-1H-pyrazolo[3,4-d]pyrimidin-6-amine] |
| < 100 nM | 100 to 1000 nM | COc1cccc(F)c1Cn1ncc2cnc(Nc3cnn(C)c3)nc21 [Example 90, 1-(2-Fluoro-6-methoxybenzyl)-N-(1-methyl-1H-pyrazol-4-yl)-1H-pyrazolo[3,4-d]pyrimidin-6-amine] |
| < 100 nM | 1000 to 10000 nM | OCCn1cc(Nc2ncc3cnn(Cc4c(F)cccc4C(F)(F)F)c3n2)cn1 [Example 261, 2-(4-((1-(2-Fluoro-6-(trifluoromethyl)benzyl)-1H-pyrazolo[3,4-d]pyrimidin-6-yl)amino)-1H-pyrazol-1-yl)ethanol] |
| 100 to 1000 nM | ≥ 10000 nM | Cc1c(Nc2ncc3cnn(Cc4ccccc4C#N)c3n2)cnn1C [Example 37, 2-((6-(1,5-Dimethyl-1H-pyrazol-4-ylamino)-1H-pyrazolo[3,4-d]pyrimidin-1-yl)methyl)benzonitrile] |
| < 100 nM | 1000 to 10000 nM | Cn1cc(Nc2ncc3cnn(Cc4cccc(C(N)=O)c4)c3n2)cn1 [Example 80, 3-((6-((1-Methyl-1H-pyrazol-4-yl)amino)-1H-pyrazolo[3,4-d]pyrimidin-1-yl)methyl)benzamide] |
| < 100 nM | 100 to 1000 nM | Cn1cc(Nc2ncc3cnn(Cc4cccc5c4OCO5)c3n2)cn1 [Example 228, 1-(Benzo[d][1,3]dioxol-4-ylmethyl)-N-(1-methyl-1H-pyrazol-4-yl)-1H-pyrazolo[3,4-d]pyrimidin-6-amine] |
| < 100 nM | 1000 to 10000 nM | Cn1cc(Nc2ncc3cnn(Cc4ccccc4OCCO)c3n2)cn1 [Example 168, 2-(2-((6-((1-Methyl-1H-pyrazol-4-yl)amino)-1H-pyrazolo[3,4-d]pyrimidin-1-yl)methyl)phenoxy)ethanol] |
| < 100 nM | < 100 nM | Cn1cc(Nc2ncc3cnn(Cc4cc(F)ccc4Cl)c3n2)cn1 [Example 62, 1-(2-Chloro-5-fluorobenzyl)-N-(1-methyl-1H-pyrazol-4-yl)-1H-pyrazolo[3,4-d]pyrimidin-6-amine] |
| < 100 nM | 1000 to 10000 nM | CC(C)n1cc(Nc2ncc3cnn(Cc4ccccc4C#N)c3n2)cn1 [Example 12, 2-((6-(1-Isopropyl-1H-pyrazol-4-ylamino)-1H-pyrazolo[3,4-d]pyrimidin-1-yl)methyl)benzonitrile] |
| < 100 nM | 1000 to 10000 nM | Cn1cc(Nc2ncc3cnn(Cc4c(F)cccc4F)c3n2)cn1 [Example 29, 1-(2,6-Difluorobenzyl)-N-(1-methyl-1H-pyrazol-4-yl)-1H-pyrazolo[3,4-d]pyrimidin-6-amine] |
| < 100 nM | 100 to 1000 nM | COc1ccc(F)cc1Cn1ncc2cnc(Nc3cnn(C)c3)nc21 [Example 91, 1-(5-Fluoro-2-methoxybenzyl)-N-(1-methyl-1H-pyrazol-4-yl)-1H-pyrazolo[3,4-d]pyrimidin-6-amine] |
| 100 to 1000 nM | 1000 to 10000 nM | COCCOc1ccccc1Cn1ncc2cnc(Nc3cnn(C)c3)nc21 [Example 102, 1-(2-(2-Methoxyethoxy)benzyl)-N-(1-methyl-1H-pyrazol-4-yl)-1H-pyrazolo[3,4-d]pyrimidin-6-amine] |
| < 100 nM | < 100 nM | CNC(=O)c1cc(Nc2ncc3cnn(Cc4ccccc4F)c3n2)c[nH]1 [Example 239, 4-((1-(2-Fluorobenzyl)-1H-pyrazolo[3,4-d]pyrimidin-6-yl)amino)-N-methyl-1H-pyrrole-2-carboxamide] |
